Measured values as given in US20080039513A1, “Marine Compounds with Calcium Channel Blocking Properties for the Treatment of Cognitive or Neurodegenerative Diseases” (priority 2004, published 2008).
Read-outs that look alike come from different tables or passages of the source.

Key:
[1] = biological target: T1, AChE (from bovine erythrocytes) (Bos taurus, UniProt P23795); assay: AChE inhibition (Ellman colorimetric method); assay type: biochemical; details: read-out: % inhibition AChE (concentration); for inhibition at 30 µM: 3 × 10^−5 M
T1 construct: AChE (Sigma Chemical Co. from bovine erythrocytes); purchased Sigma Chemical Co; host or cells: bovine erythrocytes
T1 sequence (P23795 31-614 isoform P23795-2 limits assumed): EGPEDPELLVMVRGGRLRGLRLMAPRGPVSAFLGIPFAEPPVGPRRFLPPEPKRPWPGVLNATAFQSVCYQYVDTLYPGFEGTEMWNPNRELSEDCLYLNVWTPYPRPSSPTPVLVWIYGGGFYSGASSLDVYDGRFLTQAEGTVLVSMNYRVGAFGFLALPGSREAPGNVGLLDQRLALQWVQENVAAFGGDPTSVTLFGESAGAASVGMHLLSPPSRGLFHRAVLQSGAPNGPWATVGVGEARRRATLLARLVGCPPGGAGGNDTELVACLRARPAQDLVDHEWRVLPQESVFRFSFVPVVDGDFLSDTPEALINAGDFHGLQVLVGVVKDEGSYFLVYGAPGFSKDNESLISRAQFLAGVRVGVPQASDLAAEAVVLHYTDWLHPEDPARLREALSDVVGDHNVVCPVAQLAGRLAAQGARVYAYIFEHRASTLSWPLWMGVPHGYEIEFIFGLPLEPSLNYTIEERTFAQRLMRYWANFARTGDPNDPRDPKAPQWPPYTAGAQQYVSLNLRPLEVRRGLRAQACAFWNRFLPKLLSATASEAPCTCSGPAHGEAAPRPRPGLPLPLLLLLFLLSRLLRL
Protocol: AChE inhibitory activity was evaluated at 30° C. by the colorimetric method reported by Ellman (Ellman, G. L. et al., 1961, Biochem Pharmacol, 7, 88-95). The assay solution consisted of 0.1 M phosphate buffer pH 8, 0.3 mM 5,5′-dithiobis (2-nitrobenzoic acid) (DTNB, Ellman's reagent), 0.02 units AChE (Sigma Chemical Co. from bovine erythrocytes), and 0.5 mM acetylthiocholine iodide as the substrate of the enzymatic reaction. The compounds tested were added to the assay solution and pre incubated with the enzyme for 5 min at 30° C. After that period, the substrate was added. The absorbance changes at 405 nm were recorded for 5 min with a microplate reader Digiscan 340T, the reaction rates were compared, and the percent inhibition due to the presence of test compounds was calculated. The reaction rate was calculated with, at least, triplicate measurements, and the percent inhibition due to the presence of test compound was calculated relative to the compound-free control.

BuChE from human serum = biological target: T2, BuChE from human serum (Homo sapiens, UniProt P06276); assay: BuChE inhibition (Ellman colorimetric method); assay type: biochemical
T2 construct: 0.01 units BuChE from human serum; from tissue; host or cells: human serum
Protocol: BuChE inhibitory activity was evaluated at 30° C. by the colorimetric method reported by Ellman (Ellman, G. L. et al., 1961, Biochem Pharmacol, 7, 88-95). The assay solution consisted of 0.01 units BuChE from human serum, 0.1 M sodium phosphate buffer pH 8, 0.3 mM 5,5′-dithiobis (2-nitrobenzoic acid) (DTNB, Ellman's reagent), and 0.5 mM butyrylthiocholine iodide as the substrate of the enzymatic reaction. Enzyme activity was determined by measuring the absorbance at 405 nm during 5 minutes with a microplate reader Digiscan 340T. The tested compounds were preincubated with the enzyme for 10 minutes at 30° C. The reaction rate was calculated with, at least, triplicate measurements.

VDCC = VDCC blockade: intracellular Ca2+ (Fluo-4) in SH-SY5Y cells on depolarization with 60 mM KCl; assay type: cell-based, human
Protocol: SH-SY5Y cells were plated at 5×10^5 cells per well into Black/Clear Bottom 96-well culture plate, 48 hours before treatment. Cells were loaded with Fluo-4, 5 μM and pluronic acid, 0.1%, for 30 min at 37° C., 5% CO2, following a incubation of 15 min at RT in Krebs-HEPES solution. Immediately cells are exposed to the samples at different concentrations for 10 min. […] After the treatment, the fluorescence is measured in a Fluostar Optima plate reader (BMG) in response to depolarization with 60 mM KCl. The excitation wavelength was 485 nm, and that of emission 520 nm. […] Three compounds isolated from this extract have shown calcium channel blocking properties in SH-SY5Y neuroblastoma cells.

[2] = test system: human neuroblastoma cell line SH-SY5Y; assay type: cell-based; details: for Toxicity (in words): at 10 μM
Protocol: The cytotoxicity effect of the molecules was tested in the human neuroblastoma cell line SH-SY5Y. These cells were cultured in 96-well plates in minimum essential medium, Ham's F12 medium, supplemented with 10% fetal bovine serum, 1% glutamine and 1% penicillin/streptomycin, and grown in a 5% CO2 humidified incubator at 37° C. Cells were plated at 10^4 cells for each well, at least, 48 hours before treatment. Cells were exposed for 24 hours to the compounds at different concentrations (from 10^−5 to 10^−9), quantitative assessment of cell death was made by measurement of the intracellular enzyme lactate dehydrogenase (LDH) (citotoxicity detection kit, Roche). The quantity of LDH was measured was evaluated in a microplate reader Anthos 2010, at 492 and 620 nm. Controls were taken as 100% viability.

AChE peripheral site = biological target: T3, AChE peripheral site (Bos taurus, UniProt P23795); assay: Propidium competition (fluorescence); assay type: binding; details: 30 μM compound; 5 μM AChE, 20 μM propidium iodide
T3 sequence (P23795 31-613): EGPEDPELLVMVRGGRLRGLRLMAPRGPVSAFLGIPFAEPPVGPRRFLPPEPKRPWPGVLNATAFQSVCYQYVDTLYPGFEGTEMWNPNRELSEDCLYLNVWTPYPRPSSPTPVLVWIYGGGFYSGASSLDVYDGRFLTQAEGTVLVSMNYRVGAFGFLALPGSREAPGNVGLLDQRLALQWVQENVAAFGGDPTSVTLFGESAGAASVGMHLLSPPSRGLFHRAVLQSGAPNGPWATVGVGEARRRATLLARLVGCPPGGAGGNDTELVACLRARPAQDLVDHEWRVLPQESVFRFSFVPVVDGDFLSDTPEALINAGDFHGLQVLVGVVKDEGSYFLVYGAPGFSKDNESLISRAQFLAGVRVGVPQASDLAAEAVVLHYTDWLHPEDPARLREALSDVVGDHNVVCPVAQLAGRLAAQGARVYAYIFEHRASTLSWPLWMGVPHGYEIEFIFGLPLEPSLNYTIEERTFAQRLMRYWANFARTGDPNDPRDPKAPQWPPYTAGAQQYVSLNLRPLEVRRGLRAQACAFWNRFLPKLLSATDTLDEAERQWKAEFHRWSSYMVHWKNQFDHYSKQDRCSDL
Protocol: Fluorescence was measured in a Fluostar Optima plate reader (BMG). Measurements were carried out in 100 μl solution volume, in 96-well plates. The buffer used was 1 mM Tris/HCl, pH 8.0. 5 μM AChE was incubated, at least 6 hours, with the molecule at different concentrations. 20 μM propidium iodide was added 10 min before fluorescence measurement. The excitation wavelength was 485 mn and that of emission 620 nm.

[3] = SH-SY5Y, 24 hours exposure, LDH

T2 sequence (P06276 29-602): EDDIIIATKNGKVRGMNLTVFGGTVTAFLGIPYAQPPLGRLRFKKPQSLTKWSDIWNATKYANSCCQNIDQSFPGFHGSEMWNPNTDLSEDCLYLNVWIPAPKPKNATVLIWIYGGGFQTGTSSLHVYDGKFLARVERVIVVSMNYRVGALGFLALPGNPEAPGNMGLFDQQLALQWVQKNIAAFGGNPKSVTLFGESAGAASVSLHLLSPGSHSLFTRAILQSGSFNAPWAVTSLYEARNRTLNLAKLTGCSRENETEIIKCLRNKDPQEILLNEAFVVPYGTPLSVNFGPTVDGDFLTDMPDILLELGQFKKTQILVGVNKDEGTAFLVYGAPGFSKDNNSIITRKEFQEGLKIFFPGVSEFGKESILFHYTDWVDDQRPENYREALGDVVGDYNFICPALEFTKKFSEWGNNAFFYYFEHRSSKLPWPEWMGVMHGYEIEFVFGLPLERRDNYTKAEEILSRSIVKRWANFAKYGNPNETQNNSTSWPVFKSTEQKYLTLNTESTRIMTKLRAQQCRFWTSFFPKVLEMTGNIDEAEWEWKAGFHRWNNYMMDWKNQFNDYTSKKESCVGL

Row | Compound | inhibition at 30 µM [1] | inhibition at 30 µM (BuChE from human serum) | Toxicity [2, 3] | % inhibition VDCC (concentration) (VDCC; 1.8 × 10^−5 M) | % inhibition VDCC (concentration) (VDCC; 10^−5 M) | Toxicity (in words) [2, 3] | further results
1 | COC1=C(Br)[C@@H]2OC(=O)C[C@]2(O)C=C1Br [Compound 1, Aeroplysinin-2] | 7 ± 1% | 0% | 0.6 µM | – | – | – | % inhibition VDCC (concentration) (VDCC; concentration not given): 0%
2 | COC1=C(Br)[C@H](O)[C@](O)(CC#N)C=C1Br [Compound 2, Aeroplysinin-1] | 19 ± 3% | 0% | 6 µM | – | – | – | % inhibition VDCC (concentration) (VDCC; concentration not given): 0%
3 | COC1=C(Br)[C@H](O)[C@@]2(C=C1Br)CC(C(=O)NCCCCNC(=O)C1=NO[C@]3(C=C(Br)C(OC)=C(Br)[C@@H]3O)C1)=NO2 [Compound 3, Aerothionin] | 12 ± 1% | 13 ± 1% | – | 75 ± 17% | – | – | Toxicity ([2]; human, 24 h): 18 µM
4 | COC1=C(Br)[C@H](O)[C@@]2(C=C1Br)CC(C(=O)NCCCCCNC(=O)C1=NO[C@]3(C=C(Br)C(OC)=C(Br)[C@@H]3O)C1)=NO2 [Compound 4, Homoaerothionin] | 9 ± 4% | 10 ± 1% | 6 µM | 95 ± 4% | – | – | Propidium competition (30 μM) (AChE peripheral site): YES
5 | COC1=C(Br)[C@@H](O)[C@]2(C=C1Br)CC(C(=O)NCCc1cc(Br)c(OCCCNC(=O)C3=NO[C@]4(C=C(Br)C(OC)=C(Br)[C@@H]4O)C3)c(Br)c1)=NO2 [Compound 5, 11,19-dideoxyfistularin] | 63 ± 3% | 57 ± 7% | >100 µM | 34 ± 14% | – | – | Propidium competition (30 μM) (AChE peripheral site): YES
6 | COC1=C(Br)[C@@H](O)[C@]2(C=C1Br)CC(C(=O)NCCc1cnc[nH]1)=NO2 [Compound 6] | – | – | – | – | 18 ± 10% | Not toxic | inhibition at 100 µM ([1]; 10^−4 M): 0%
7 | COC1=C(Br)[C@@H](O)[C@]2(C=C1Br)CC(C(=O)NCCCOc1c(Br)cc(CCN)cc1Br)=NO2 [Compound 7] | – | – | – | – | 67 ± 14.5% | Not toxic | inhibition at 100 µM ([1]; 10^−4 M): 9.5 ± 3%; inhibition at 10 µM ([1]; 10^−5 M): 5 ± 3%
8 | COC1=C(Br)[C@@H](O)[C@]2(C=C1Br)CC(C(=O)NCCCOc1c(Br)cc(C/C(=N\O)C(=O)NCCc3cnc[nH]3)cc1Br)=NO2 [Compound 8] | – | – | – | – | 96 ± 3% | Not toxic | inhibition at 100 µM [1]: 0%; % inhibition VDCC (concentration) (VDCC; 10^−6 M): 48%; % inhibition VDCC (concentration) (VDCC; 10^−7 M): 9%
